Reference: PubChem BioAssay (NCI)
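These data come from cells grown in 96-well plates and exposed to compound for 48 hours at five concentrations. TGI: total growth inhibition.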 Where a SMILES comes first, the peptide text is derived from it. [ ]: non-standard residue; d: D form. The star is where a group is joined. Cbz = O=C(OCc1ccccc1)*; Aib = CC(C)(N)C(=O)O; OBn = c1ccc(CO*)cc1

Columns and labels:
Assay in all cases: inhibition of tumour cell growth, NCI panel, 48 h
786-0 renal = test system: 786-0 renal
A498 renal = test system: A498 renal
A549 NSCLC = test system: A549 NSCLC
ACHN renal = test system: ACHN renal
BT-549 breast = test system: BT-549 breast
CCRF-CEM leukemia = test system: CCRF-CEM leukemia
COLO 205 colon = test system: COLO 205 colon
DU-145 prostate = test system: DU-145 prostate
HCC-2998 colon = test system: HCC-2998 colon
HCT-116 colon = test system: HCT-116 colon
HCT-15 colon = test system: HCT-15 colon
HL-60(TB) leukemia = test system: HL-60(TB) leukemia
HOP-62 NSCLC = test system: HOP-62 NSCLC
HS 578T breast = test system: HS 578T breast
HT29 colon = test system: HT29 colon
IGROV1 ovarian = test system: IGROV1 ovarian
K-562 leukemia = test system: K-562 leukemia
KM12 colon = test system: KM12 colon
LOX IMVI melanoma = test system: LOX IMVI melanoma
M14 melanoma = test system: M14 melanoma
MALME-3M melanoma = test system: MALME-3M melanoma
MCF7 breast = test system: MCF7 breast
MDA-MB-231 breast = test system: MDA-MB-231 breast
MDA-MB-435 = test system: MDA-MB-435
MDA-N = test system: MDA-N
MOLT-4 leukemia = test system: MOLT-4 leukemia
NCI-H226 lung = test system: NCI-H226 lung
NCI-H23 lung = test system: NCI-H23 lung
NCI-H460 lung = test system: NCI-H460 lung
NCI-H522 lung = test system: NCI-H522 lung
NCI/ADR-RES ovarian = test system: NCI/ADR-RES ovarian
OVCAR-3 ovarian = test system: OVCAR-3 ovarian
OVCAR-4 ovarian = test system: OVCAR-4 ovarian
OVCAR-5 ovarian = test system: OVCAR-5 ovarian
OVCAR-8 ovarian = test system: OVCAR-8 ovarian
PC-3 prostate = test system: PC-3 prostate
RPMI-8226 leukemia = test system: RPMI-8226 leukemia
RXF 393 renal = test system: RXF 393 renal
SF-268 CNS = test system: SF-268 CNS
SF-295 CNS = test system: SF-295 CNS
SF-539 CNS = test system: SF-539 CNS
SK-MEL-2 melanoma = test system: SK-MEL-2 melanoma
SK-MEL-28 melanoma = test system: SK-MEL-28 melanoma
SK-OV-3 ovarian = test system: SK-OV-3 ovarian
SN12C renal = test system: SN12C renal
SNB-19 CNS = test system: SNB-19 CNS
SNB-75 CNS = test system: SNB-75 CNS
SR leukemia = test system: SR leukemia
SW-620 colon = test system: SW-620 colon
T-47D breast = test system: T-47D breast
TK-10 renal = test system: TK-10 renal
U251 CNS = test system: U251 CNS
UACC-257 melanoma = test system: UACC-257 melanoma
UACC-62 melanoma = test system: UACC-62 melanoma
UO-31 renal = test system: UO-31 renal
CAKI-1 renal = test system: CAKI-1 renal
HOP-92 NSCLC = test system: HOP-92 NSCLC
SK-MEL-5 melanoma = test system: SK-MEL-5 melanoma
EKVX NSCLC = test system: EKVX NSCLC

Measured: TGI

CSC[C@H](NC(=O)COc1cccc2cnccc12)C(=O)NC(Cc1ccccc1)C(O)C(=O)N1CSC[C@H]1C(=O)NC(C)(C)C (some centres undefined)
91.4 µM: HL-60(TB) leukemia
84.9 µM: ACHN renal
31.4 µM: SF-539 CNS
63 µM: SF-268 CNS
99.8 µM: RXF 393 renal
not listed: CAKI-1 renal | HOP-92 NSCLC | SK-MEL-5 melanoma | EKVX NSCLC
> 100 µM: all other assays above

C[C@@H]1CC[C@H]2[C@H]1[C@H]1[C@@H](CC[C@]2(C)N=C=S)C1(C)C
31.7 µM: HCT-116 colon
83.4 µM: HCC-2998 colon
32.5 µM: MOLT-4 leukemia
43.9 µM: NCI/ADR-RES ovarian | SK-MEL-2 melanoma
96.6 µM: MDA-MB-435
30.9 µM: CCRF-CEM leukemia
78.1 µM: M14 melanoma
54.3 µM: HL-60(TB) leukemia
40 µM: KM12 colon
49.7 µM: SK-MEL-28 melanoma
43.4 µM: RPMI-8226 leukemia
35.7 µM: K-562 leukemia
94.3 µM: NCI-H23 lung
52.8 µM: MALME-3M melanoma
92.4 µM: CAKI-1 renal
47 µM: SR leukemia
36 µM: SW-620 colon
46.9 µM: SF-295 CNS
30.5 µM: RXF 393 renal | U251 CNS
84.7 µM: HOP-92 NSCLC
47.3 µM: NCI-H460 lung
49.6 µM: DU-145 prostate
67.4 µM: UACC-257 melanoma
42.6 µM: UACC-62 melanoma
23.4 µM: MDA-N
64.6 µM: HCT-15 colon
52.7 µM: HT29 colon | MDA-MB-231 breast
34 µM: MCF7 breast
44.7 µM: SN12C renal
31.8 µM: SK-MEL-5 melanoma
33.3 µM: COLO 205 colon
42.9 µM: OVCAR-3 ovarian
38.8 µM: NCI-H226 lung
39.1 µM: BT-549 breast
not listed: 786-0 renal | A498 renal | A549 NSCLC | ACHN renal | NCI-H522 lung | SF-268 CNS | SF-539 CNS | SNB-19 CNS | EKVX NSCLC
> 100 µM: all other assays above

CC(NC(=O)C(C)(C)NC(=O)C(CC(=O)OCc1ccccc1)NC(=O)OCc1ccccc1)C(N)=O (centres undefined) (Cbz-Asp(OBn)-[Aib]-Ala-NH2; configuration not given here)
not listed: A498 renal | SNB-75 CNS
> 100 µM: all other assays above

COC1OC2COC(c3ccccc3)OC2C(O)C1OC(=S)c1ccccc1 (centres undefined)
85 µM: T-47D breast
12.9 µM: U251 CNS
47.9 µM: HT29 colon
36.5 µM: RPMI-8226 leukemia
4.37 µM: MDA-MB-435
57.2 µM: PC-3 prostate
61.3 µM: SK-MEL-5 melanoma
67 µM: ACHN renal
33 µM: COLO 205 colon
87.1 µM: SF-539 CNS
48.5 µM: CCRF-CEM leukemia
80.9 µM: MDA-N
51.7 µM: EKVX NSCLC
71.6 µM: MALME-3M melanoma
48.4 µM: SN12C renal
80.4 µM: CAKI-1 renal
91.4 µM: HOP-62 NSCLC
85.5 µM: SR leukemia
21.4 µM: LOX IMVI melanoma
not listed: 786-0 renal | HCC-2998 colon | HCT-116 colon | HL-60(TB) leukemia | KM12 colon | NCI-H522 lung | SNB-75 CNS
> 100 µM: all other assays above
